Laboratory results taken from patent US20230190937A1, “IRON COMPLEXES OF ESTERIFIED DERIVATIVES OF NATURAL PRODUCTS, AND METHODS OF USE” (CORNELL UNIVERSITY, priority 2021, published 2023).

Procedure: Preparation of curcumin in coconut oil. To a round bottom flask with a magnetic stir bar, 20 mg of curcumin and 25 mL (23000 mg) of coconut oil were added. The flask was placed in a water bath at 40° C. and the mixture was stirred for 30 min. The sample was then cooled to room temperature and centrifuged to remove non-dissolved residue of curcumin.
(§1) The sample was then cooled to room temperature and used for the next studies.
as §1

COc1cc(/C=C/C(=O)CC(=O)/C=C/c2ccc(O)c(OC)c2)ccc1O [curcumin]
solubility (concentration) in coconut oil: around 0.08 wt %
